Activity calls are given as the source filed them. For most assays here, no stated cut-off is given here; in the data, actives have a measured IC50 and inactives only a lower limit.
Assays:
[1] = target: T1, Type-1 angiotensin II receptor (Homo sapiens, UniProt P30556); assay: AT1 receptor agonists, dose response, selectivity assay for APJ receptor agonist project, cell-based, uHTS hits (AID 488865); format: functional;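 further: beta-arrestin recruitment to AT1 measured by enzyme fragment complementation luminescence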
T1 sequence (P30556 whole entry): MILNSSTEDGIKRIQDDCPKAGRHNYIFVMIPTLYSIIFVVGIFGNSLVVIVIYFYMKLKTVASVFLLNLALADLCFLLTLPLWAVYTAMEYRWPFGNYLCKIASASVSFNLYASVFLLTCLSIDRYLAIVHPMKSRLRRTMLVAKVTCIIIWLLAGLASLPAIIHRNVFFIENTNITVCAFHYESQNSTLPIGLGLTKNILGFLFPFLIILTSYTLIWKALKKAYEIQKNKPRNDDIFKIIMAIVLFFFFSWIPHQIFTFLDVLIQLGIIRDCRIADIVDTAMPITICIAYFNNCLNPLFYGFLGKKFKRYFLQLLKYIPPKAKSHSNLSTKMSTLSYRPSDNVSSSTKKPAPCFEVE

[2] = target: T2, Carboxy-terminal domain RNA polymerase II polypeptide A small phosphatase 1 (Homo sapiens, UniProt Q9GZU7); assay: inhibitors of CTDSP1, concentration-response testing, biochemical assay, absorbance-based, actives from ultra-high-throughput screening (AID 540297); format: functional
T2 sequence (Q9GZU7 whole entry): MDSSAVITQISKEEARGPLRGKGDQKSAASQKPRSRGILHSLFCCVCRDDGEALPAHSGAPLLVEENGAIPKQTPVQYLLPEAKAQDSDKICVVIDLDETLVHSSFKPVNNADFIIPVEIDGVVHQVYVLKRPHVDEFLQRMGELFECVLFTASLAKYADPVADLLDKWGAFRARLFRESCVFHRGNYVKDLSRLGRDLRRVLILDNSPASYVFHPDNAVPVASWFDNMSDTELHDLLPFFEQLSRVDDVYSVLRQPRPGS

[3] = target: DNA dC->dU-editing enzyme APOBEC-3G (Homo sapiens, UniProt Q9HC16); format: functional;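 further: Dose-response counterscreen measuring inhibition of APOBEC3G DNA deaminase activity, run while confirming APOBEC3A inhibitors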
[4] = target: DNA dC->dU-editing enzyme APOBEC-3A (Homo sapiens, UniProt P31941); assay: Dose Response confirmation of small molecule APOBEC3A DNA Deaminase Inhibitors via a fluorescence-based single-stranded DNA deaminase assay. [Related pubchem assays (depositor defined):AID493011, AID493024]; format: functional
[5] = target: Alkaline phosphatase, placental type (Homo sapiens, UniProt P05187); assay: PLAP enzyme inhibitors, confirmation, biochemical, luminescence (AID 1512); format: functional
[6] = target: T3, Alkaline phosphatase, tissue-nonspecific isozyme (Homo sapiens, UniProt P05186); assay: human TNAP enzyme inhibitors, SAR follow-up, biochemical, luminescent, dose response (AID 1056)
T3 sequence (P05186 whole entry): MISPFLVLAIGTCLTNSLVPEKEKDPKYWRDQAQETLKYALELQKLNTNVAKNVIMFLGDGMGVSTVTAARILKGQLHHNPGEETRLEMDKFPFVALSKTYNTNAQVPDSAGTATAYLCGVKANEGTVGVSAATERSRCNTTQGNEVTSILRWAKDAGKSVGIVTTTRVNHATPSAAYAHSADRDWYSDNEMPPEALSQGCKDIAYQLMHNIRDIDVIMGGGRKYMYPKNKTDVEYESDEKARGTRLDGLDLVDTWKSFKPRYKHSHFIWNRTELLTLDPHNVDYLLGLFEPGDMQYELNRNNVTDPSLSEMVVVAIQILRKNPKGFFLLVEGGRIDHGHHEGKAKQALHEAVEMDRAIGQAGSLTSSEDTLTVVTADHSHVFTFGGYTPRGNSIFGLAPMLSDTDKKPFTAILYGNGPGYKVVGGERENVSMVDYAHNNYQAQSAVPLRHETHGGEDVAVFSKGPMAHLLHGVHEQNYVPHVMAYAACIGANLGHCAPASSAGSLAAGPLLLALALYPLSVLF

[7] = target: T4, Short transient receptor potential channel 4 (Mus musculus, UniProt Q9QUQ5); assay: mouse TRPC4 channel activators, dose response, cell-based, HEK293 TRPC4/mu-opioid, Fluo-4 calcium (AID 434937); format: functional
T4 sequence (Q9QUQ5 whole entry): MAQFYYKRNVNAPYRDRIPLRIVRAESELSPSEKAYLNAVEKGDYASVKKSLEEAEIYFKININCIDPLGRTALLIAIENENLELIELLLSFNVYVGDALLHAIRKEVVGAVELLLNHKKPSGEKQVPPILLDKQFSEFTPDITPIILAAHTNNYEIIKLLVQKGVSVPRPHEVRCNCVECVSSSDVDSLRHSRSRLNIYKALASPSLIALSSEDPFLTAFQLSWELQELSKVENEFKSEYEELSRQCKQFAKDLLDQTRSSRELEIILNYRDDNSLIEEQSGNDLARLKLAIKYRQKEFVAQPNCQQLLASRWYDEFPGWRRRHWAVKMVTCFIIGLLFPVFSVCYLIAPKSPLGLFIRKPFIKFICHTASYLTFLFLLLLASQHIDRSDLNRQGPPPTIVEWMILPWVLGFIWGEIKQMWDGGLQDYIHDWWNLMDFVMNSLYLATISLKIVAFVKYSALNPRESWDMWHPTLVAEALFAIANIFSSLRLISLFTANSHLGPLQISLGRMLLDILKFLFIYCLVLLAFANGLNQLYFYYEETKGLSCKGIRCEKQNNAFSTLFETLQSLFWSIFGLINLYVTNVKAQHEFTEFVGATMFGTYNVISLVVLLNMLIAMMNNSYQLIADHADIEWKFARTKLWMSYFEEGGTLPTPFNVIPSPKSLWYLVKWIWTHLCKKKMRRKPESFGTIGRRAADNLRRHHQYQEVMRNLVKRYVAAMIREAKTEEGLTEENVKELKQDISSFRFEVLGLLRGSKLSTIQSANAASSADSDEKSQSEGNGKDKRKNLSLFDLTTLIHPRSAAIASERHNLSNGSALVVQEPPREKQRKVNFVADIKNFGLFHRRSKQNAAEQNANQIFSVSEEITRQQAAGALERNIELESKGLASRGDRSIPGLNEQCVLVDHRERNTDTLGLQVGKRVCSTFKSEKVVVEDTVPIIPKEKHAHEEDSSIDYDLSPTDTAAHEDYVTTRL

Sequence of Alkaline phosphatase, placental type (P05187 whole entry): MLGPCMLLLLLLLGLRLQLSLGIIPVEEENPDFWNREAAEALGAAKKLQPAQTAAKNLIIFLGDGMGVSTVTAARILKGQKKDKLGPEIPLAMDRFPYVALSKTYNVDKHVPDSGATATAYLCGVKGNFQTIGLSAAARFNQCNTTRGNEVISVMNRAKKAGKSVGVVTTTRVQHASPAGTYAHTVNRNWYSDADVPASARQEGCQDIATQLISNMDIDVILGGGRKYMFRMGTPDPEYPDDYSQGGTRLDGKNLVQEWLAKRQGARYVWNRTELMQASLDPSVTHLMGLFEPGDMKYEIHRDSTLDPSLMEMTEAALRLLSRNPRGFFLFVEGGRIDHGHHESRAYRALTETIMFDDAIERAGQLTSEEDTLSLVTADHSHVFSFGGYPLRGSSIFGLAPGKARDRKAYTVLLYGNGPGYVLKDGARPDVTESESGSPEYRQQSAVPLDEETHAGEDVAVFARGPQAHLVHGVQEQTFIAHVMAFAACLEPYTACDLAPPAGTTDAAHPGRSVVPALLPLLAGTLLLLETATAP
Sequence of DNA dC->dU-editing enzyme APOBEC-3A (P31941 whole entry): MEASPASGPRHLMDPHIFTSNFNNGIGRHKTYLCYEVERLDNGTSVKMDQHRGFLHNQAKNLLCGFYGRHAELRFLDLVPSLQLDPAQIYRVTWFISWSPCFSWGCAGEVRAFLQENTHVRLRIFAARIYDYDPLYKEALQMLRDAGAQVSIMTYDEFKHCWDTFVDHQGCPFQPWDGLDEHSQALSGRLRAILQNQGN
Sequence of DNA dC->dU-editing enzyme APOBEC-3G (Q9HC16 whole entry): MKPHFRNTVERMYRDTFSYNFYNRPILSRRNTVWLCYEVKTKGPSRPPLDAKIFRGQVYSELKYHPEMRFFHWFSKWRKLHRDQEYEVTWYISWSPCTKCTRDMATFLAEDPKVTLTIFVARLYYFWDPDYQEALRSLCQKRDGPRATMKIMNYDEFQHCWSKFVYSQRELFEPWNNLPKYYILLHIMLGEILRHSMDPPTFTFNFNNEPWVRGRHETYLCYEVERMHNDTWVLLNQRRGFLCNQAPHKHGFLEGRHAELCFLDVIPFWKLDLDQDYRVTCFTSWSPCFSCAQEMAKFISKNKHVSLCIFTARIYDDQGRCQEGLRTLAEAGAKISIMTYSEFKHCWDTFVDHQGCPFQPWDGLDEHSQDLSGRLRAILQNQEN

Cc1cccc2sc(N(CCCN(C)C)C(=O)c3ccc(S(=O)(=O)N4CCc5ccccc5C4)cc3)nc12
EC50 [1]: > 100 µM (inactive)

COc1cc(/C=C/c2cccc[n+]2C)ccc1OCC(=O)Nc1cccc(Cl)c1
IC50 [2]: 18.9 µM (active) | IC50 [3]: 2.95 µM (active) | IC50 [4]: 2.83 µM (active)

O=C(NCc1ccccc1CN1CCCCC1)c1ccccc1N1CCCC1=O
IC50 [3]: 4.58 µM (active) | IC50 [4]: 4.48 µM (active)

COc1ccc(F)cc1S(=O)(=O)Nc1ccc2ccccc2c1
IC50 [5]: > 100 µM (inactive) | IC50 [6]: > 100 µM (inactive)

CCOc1cc2[nH]c(=S)n(CCN3CCCCC3CC)c(=O)c2cc1OCC (stereo not drawn)
EC50 [1]: > 100 µM (inactive)

CCn1c(SCC(=O)c2ccc(OC)cc2)nnc1-c1ccccc1
IC50 [5]: > 100 µM (inactive) | IC50 [6]: > 100 µM (inactive)

Cn1cc[n+](C)c1P(=S)(c1ccccc1)c1ccccc1
EC50 [7]: 0.237 µM (active)

CCC(c1nnnn1CCOC)N(Cc1ccc(C)cc1)Cc1cc2cc(OC)ccc2[nH]c1=O (stereo not drawn)
EC50 [1]: > 100 µM (inactive)
